In paper PMC7127258 (European Journal of Medicinal Chemistry, 2013):

Legend:
[1] = tested on: vesicular stomatitis virus (VSV); format: cell-based
[2] = tested on: interferon; conditions: rodents and cats; administered orally or intraperitoneally; cited from earlier work
[3] = tested on: renal papillae of rats; conditions: cited from earlier work

Row | Compound | EC50 vesicular stomatitis virus [1] | Interferon induction [2] | Toxicity upon chronic administration [3]
1 | CCCCCc1nc(N)[nH]c(=O)c1Br [Compound 14c, 2-Amino-5-bromo-6-pentylpyrimidin-4(3H)-one] | anti-VSV activity was not observed in HEL cell cultures | – | –
2 | Cc1nc(N)nc(O)c1Br [Compound 6, 2-amino-5-bromo-6-methyl-4(3H)-pyrimidinone] | – | reported to induce interferon | toxicity-limiting crystal deposition in the renal papillae of rats
